# Data: patent US11147818B2, “Combination therapies” (Infinity Pharmaceuticals, Inc., priority 2016, dated 2021)
# Experiments:
# Assay in all cases: Combination study of Compound 1 with selinexor, ATPLite cell growth/viability, 9x9 dose matrix
# Type in all cases: cell-based
# Details in all cases: Compound 1 in combination with Selinexor, 72 hours
# H9 cell line = system: H9 cell line
# Protocol: (§1) The synergistic effects of compounds provided herein and another therapeutic agent were carried out. The method is described as follows. Cells were thawed from a liquid nitrogen preserved state. Once cells were expanded and divided at their expected doubling times, screening began. Cells were seeded in growth media in either black 1536-well or 384-well tissue culture treated plates. Cells were then equilibrated in assay plates via centrifugation and placed in incubators attached to the Dosing Modules at 37° C. for 24 hours before treatment. […] These Tzero (To) plates were read using ultra-sensitive luminescence on Envision plate readers (Perkin Elmer). Treated assay plates were incubated with compound for 72 hours. After 72 hours, plates were developed for endpoint analysis using ATPLite. All data points were collected via automated processes, quality controlled and analyzed using Zalicus software. Assay plates were accepted if they passed the following quality control standards: relative luciferase values were consistent throughout the entire experiment, Z-factor scores were greater than 0.6, untreated/vehicle controls behaved consistently on the plate.
# Inhibition (I) is defined as I=(1−T/V)*100% where T is treated cell count and V is untreated (vehicle) cell count (at 72 hours). I ranges from 0% (when T=V) to 100% (when T=0). The IC50 value is defined as the drug concentration needed to inhibit 50% of the cell growth compared to growth of the vehicle treated cells (the drug concentration which gives I=50%). The measure of effect in the experiment can be the inhibition of cellular response relative to the untreated level (vehicle alone). For untreated vehicle and treated levels V and T, a fractional inhibition I=1-T/V is calculated. […] When activity ratios (e.g., fold increase over stimulated control) are being used, the effect can be measured using an induction I=ln(T/V). […]
# Growth Inhibition (GI) is used as a measure of cell viability. The cell viability of vehicle is measured at the time of dosing (TO) and after 72 hours (T72). A GI reading of 0% represents no growth inhibition—T72 compound-treated and T72 vehicle signals are matched. A GI reading of 100% represents complete growth inhibition—T72 compound-treated and TO vehicle signals are matched. […] A GI reading of 200% represents complete death of all cells in the culture well. […] GI is calculated by applying the following test and equation: […]
# Combination analysis data were collected in a 9×9 dose matrix. Synergy was calculated by comparing a combination's response to those of its single compound, against the drug-with-itself dose-additive reference model. Deviations from dose additivity may be assessed visually on an isobologram or numerically with a Combination Index (CI). […]
# HH cell line = system: HH cell line
# Protocol: as §1
# (§2) Inhibition (I) is defined as I=(1−T/V)*100% where T is treated cell count and V is untreated (vehicle) cell count (at 72 hours). I ranges from 0% (when T=V) to 100% (when T=0). The IC50 value is defined as the drug concentration needed to inhibit 50% of the cell growth compared to growth of the vehicle treated cells (the drug concentration which gives I=50%). The measure of effect in the experiment can be the inhibition of cellular response relative to the untreated level (vehicle alone). For untreated vehicle and treated levels V and T, a fractional inhibition I=1-T/V is calculated. The inhibition ranges from 0% at the untreated level to 100% when T=0. Inhibition levels are negative for agents that actually increase levels. Other effect measures, such as an activity ratio r=T/V may be more appropriate for some assays. When activity ratios (e.g., fold increase over stimulated control) are being used, the effect can be measured using an induction I=ln(T/V). With this definition, all effect expressions are the same as for inhibition.
# (§3) Growth Inhibition (GI) is used as a measure of cell viability. The cell viability of vehicle is measured at the time of dosing (TO) and after 72 hours (T72). A GI reading of 0% represents no growth inhibition—T72 compound-treated and T72 vehicle signals are matched. A GI reading of 100% represents complete growth inhibition—T72 compound-treated and TO vehicle signals are matched. […] A GI reading of 200% represents complete death of all cells in the culture well. Compounds reaching an activity plateau of GI 200% are considered cytotoxic. GI is calculated by applying the following test and equation:
# (§4) [formula] [formula] where T is the signal measure for a test article, V is the vehicle-treated control measure, and Vo is the vehicle control measure at time zero. This formula is derived from the Growth Inhibition calculation used in the National Cancer Institute's NCI-60 high-throughput screen.
# (§5) Combination analysis data were collected in a 9×9 dose matrix. Synergy was calculated by comparing a combination's response to those of its single compound, against the drug-with-itself dose-additive reference model. Deviations from dose additivity may be assessed visually on an isobologram or numerically with a Combination Index (CI). See the tables below for CI at 50% inhibition and CI at 50% growth inhibition. Additive effect is CI=1.0. Synergistic effect is CI<1. Antagonistic effect is CI>1.0.
# (§6) To measure combination effects in excess of Loewe additivity, a scalar measure to characterize the strength of synergistic interaction termed the Synergy Score was devised. […]
# HuT 102 cell line = system: HuT 102 cell line
# Protocol: as §1, §2, §3, §4, §5, §6
# HuT 78 cell line = system: HuT 78 cell line
# Protocol: as §1, §2, §3, §4, §5, §6
# MJ (G11) cell line = system: MJ (G11) cell line
# Protocol: as §1, §2, §3, §4, §5, §6
smiles,measurement,setting,value
"O=C(/C=C\n1cnc(-c2cc(C(F)(F)F)cc(C(F)(F)F)c2)n1)NNc1cnccn1 [Selinexor, (Z)-3-(3-(3,5-bis(trifluoromethyl)phenyl)-1H-1,2,4-triazol-1-yl)—N′-(pyrazin-2-yl)acrylohydrazide]",CI50 growth inhibition,H9 cell line,A3 (A3=>3)
same,CI50 inhibition,H9 cell line,A3 (A3=>3)
same,Synergy Score growth inhibition,H9 cell line,10.4
same,Synergy Score inhibition,H9 cell line,3.23
same,CI50 growth inhibition,HH cell line,A2 (A2=1 to <3)
same,CI50 inhibition,HH cell line,A2 (A2=1 to <3)
same,Synergy Score growth inhibition,HH cell line,1.53
same,Synergy Score inhibition,HH cell line,1.25
same,CI50 inhibition,HuT 102 cell line,A1 (A1=0.0001 to <1)
same,Synergy Score inhibition,HuT 102 cell line,0.82
same,CI50 growth inhibition,HuT 78 cell line,A3 (A3=>3)
same,CI50 inhibition,HuT 78 cell line,A2 (A2=1 to <3)
same,Synergy Score growth inhibition,HuT 78 cell line,5.85
same,Synergy Score inhibition,HuT 78 cell line,1.94
same,CI50 growth inhibition,MJ (G11) cell line,A3 (A3=>3)
same,CI50 inhibition,MJ (G11) cell line,A2 (A2=1 to <3)
same,Synergy Score growth inhibition,MJ (G11) cell line,4.50
same,Synergy Score inhibition,MJ (G11) cell line,1.50
